Consider 9 compounds from ChEMBL document CHEMBL5113478, “7-Azaindole, 2,7-diazaindole, and 1H-pyrazole as core structures for novel anticancer agents with potential chemosensitizing properties” (Eur J Med Chem, 2022).

Holding throughout (assay type): functional
Test [1] concerns MCF7. Briefly: Antiproliferative activity against human MCF7 cells assessed as […] cell proliferation at 10 uM incubated for 48 hrs in presence of 10 uM of CDDP by WST-1 assay relative to control.
Test [2] relates to HeLa. The experiment in a line: Antiproliferative activity against human HeLa cells assessed as […] cell proliferation at 10 uM incubated for 48 hrs in presence of 15 uM of CDDP by WST-1 assay relative to control.
For test [3], the system named is A2780. The experiment in a line: Antiproliferative activity against human A2780 cells assessed as […] cell proliferation at 10 uM incubated for 48 hrs by WST-1 assay relative to control.
Test [4] concerns MCF7. Briefly: Antiproliferative activity against human MCF7 cells assessed as […] cell proliferation at 10 uM incubated for 48 hrs by WST-1 assay relative to control.
In test [5] the test system is Jurkat. The experiment in a line: Antiproliferative activity against human Jurkat cells assessed as […] cell proliferation at 10 uM incubated for 48 hrs in presence of 2 uM of CDDP by WST-1 assay relative to control.
The subject of test [6] is MOLT-4. Briefly: Antiproliferative activity against human MOLT-4 cells assessed as […] cell proliferation at 10 uM incubated for 48 hrs in presence of 2 uM of CDDP by WST-1 assay relative to control.
The subject of test [7] is A549. Briefly: Antiproliferative activity against human A549 cells assessed as […] cell proliferation at 10 uM incubated for 48 hrs by WST-1 assay relative to control.
Test [8] relates to MOLT-4. The experiment in a line: Antiproliferative activity against human MOLT-4 cells assessed as […] cell proliferation at 10 uM incubated for 48 hrs by WST-1 assay relative to control.
For test [9], the system named is PANC-1. Briefly: Antiproliferative activity against human PANC-1 cells assessed as […] cell proliferation at 10 uM incubated for 48 hrs in presence of 15 uM of CDDP by WST-1 assay relative to control.
Test [10] deals with A549. Briefly: Antiproliferative activity against human A549 cells assessed as […] cell proliferation at 10 uM incubated for 48 hrs in presence of 15 uM of CDDP by WST-1 assay relative to control.
Test [11] concerns Jurkat. The experiment in a line: Antiproliferative activity against human Jurkat cells assessed as […] cell proliferation at 10 uM incubated for 48 hrs by WST-1 assay relative to control.
The subject of test [12] is HT-29. Briefly: Antiproliferative activity against human HT-29 cells assessed as […] cell proliferation at 10 uM incubated for 48 hrs in presence of 15 uM of CDDP by WST-1 assay relative to control.
The test system of test [13] is SAOS-2. Briefly: Antiproliferative activity against human SAOS-2 cells assessed as […] cell proliferation at 10 uM incubated for 48 hrs by WST-1 assay relative to control.
Test [14] relates to PANC-1. The experiment in a line: Antiproliferative activity against human PANC-1 cells assessed as […] cell proliferation at 10 uM incubated for 48 hrs by WST-1 assay relative to control.
Test [15] deals with A2780. The experiment in a line: Antiproliferative activity against human A2780 cells assessed as […] cell proliferation at 10 uM incubated for 48 hrs in presence of 2 uM of CDDP by WST-1 assay relative to control.
Test [16] relates to SAOS-2. Briefly: Antiproliferative activity against human SAOS-2 cells assessed as […] cell proliferation at 10 uM incubated for 48 hrs in presence of 15 uM of CDDP by WST-1 assay relative to control.
Test [17] has as its system HeLa. The experiment in a line: Antiproliferative activity against human HeLa cells assessed as […] cell proliferation at 10 uM incubated for 48 hrs by WST-1 assay relative to control.
Test [18] concerns HT-29. Briefly: Antiproliferative activity against human HT-29 cells assessed as […] cell proliferation at 10 uM incubated for 48 hrs by WST-1 assay relative to control.

`CCN(CC)c1ccc(CNC(=O)c2n[nH]c3ncc(-c4ccc(S(=O)(=O)C(C)C)cc4)cc23)cc1`: the Activity stood at 57% with MCF7 [1]; 57% in the test with HeLa [2]; 83% in the test on A2780 [3]; 83% in the test with MCF7 [4]; 57% in the test with Jurkat [5]; 57% with MOLT-4 [6]. Besides, the Activity with A549 [7] is recorded as 83%; with MOLT-4 [8], 83%; in the test on PANC-1 [9] it was 57%; in the test on A549 [10] it was 57%; in the test on Jurkat [11], 83%; in the test with HT-29 [12] it was 57%. In addition, the Activity in the test with SAOS-2 [13] is 83%; in the test on PANC-1 [14], 83%; in the test with A2780 [15], 57%; in the test on SAOS-2 [16] it was 57%; in the test with HeLa [17], 83%. For the same compound, the “Cell viability relative to control” value in the test with HT-29 [18] came to 83%.
`CCN1CCN(C2CCN(C(=O)c3c[nH]c4ncc(-c5ccc(S(=O)(=O)C(C)C)cc5)cc34)CC2)CC1`: the Activity in the test with MCF7 [1] came to 62%; with HeLa [2], 62%; in the test on A2780 [3], 100%; in the test with MCF7 [4] it was 100%; with Jurkat [5] it was 62%; with MOLT-4 [6], 62%. Besides, the Activity in the test on A549 [7] came out at 100%; in the test with MOLT-4 [8] it was 100%; in the test on PANC-1 [9] it was 62%; in the test with A549 [10], 62%; in the test with Jurkat [11], 100%; in the test on HT-29 [12], 62%. The Activity stood at 100% with SAOS-2 [13]; 100% in the test with PANC-1 [14]; 62% in the test on A2780 [15]; 62% in the test on SAOS-2 [16]; 100% in the test with HeLa [17]. Besides, the “Cell viability relative to control” value in the test on HT-29 [18] is given as 100%.
As for `CCN1CCN(C(=O)c2c[nH]c3ncc(-c4ccc(S(=O)(=O)C(C)C)cc4)cc23)CC1`, the Activity with MCF7 [1] is reported as 66%; with HeLa [2], 66%; in the test with A2780 [3] it was 100%; in the test with MCF7 [4] it was 100%; with Jurkat [5], 66%; in the test on MOLT-4 [6] it was 66%. The Activity was 100% in the test on A549 [7]; 100% in the test on MOLT-4 [8]; 66% in the test with PANC-1 [9]; 66% in the test with A549 [10]; 100% in the test on Jurkat [11]; 66% in the test on HT-29 [12]. Further, the Activity in the test with SAOS-2 [13] came to 100%; with PANC-1 [14], 100%; in the test with A2780 [15] it was 66%; in the test with SAOS-2 [16], 66%; with HeLa [17], 100%. In addition, the “Cell viability relative to control” value with HT-29 [18] stood at 100%.
`CCN1CCN(C(=O)c2cc(-c3ccc(S(C)(=O)=O)cc3)[nH]n2)CC1`: the Activity in the test with MCF7 [1] worked out at 65%; in the test with HeLa [2], 65%; in the test on A2780 [3], 102%; in the test with MCF7 [4], 102%; in the test on Jurkat [5], 65%; with MOLT-4 [6], 65%. In addition, the Activity with A549 [7] was 102%; in the test with MOLT-4 [8] it was 102%; with PANC-1 [9] it was 65%; in the test on A549 [10], 65%; in the test on Jurkat [11], 102%; in the test with HT-29 [12], 65%. The Activity in the test on SAOS-2 [13] came out at 102%; in the test on PANC-1 [14] it was 102%; in the test with A2780 [15], 65%; with SAOS-2 [16] it was 65%; in the test on HeLa [17], 102%. Also, in the test with HT-29 [18], the “Cell viability relative to control” value is 102%.
For the compound `CS(=O)(=O)c1ccc(-c2cnc3[nH]cc(C(=O)N4CCC(c5ccccc5)CC4)c3c2)cc1`, the Activity in the test on MCF7 [1] is 44%; with HeLa [2] it was 44%; with A2780 [3] it was 49%; with MCF7 [4], 49%; in the test with Jurkat [5] it was 44%; in the test on MOLT-4 [6] it was 44%. Further, the Activity with A549 [7] worked out at 49%; with MOLT-4 [8] it was 49%; in the test with PANC-1 [9], 44%; in the test on A549 [10], 44%; in the test with Jurkat [11], 49%; in the test on HT-29 [12], 44%. Further, the Activity with SAOS-2 [13] worked out at 49%; in the test with PANC-1 [14], 49%; in the test with A2780 [15] it was 44%; in the test on SAOS-2 [16], 44%; in the test on HeLa [17] it was 49%. Further, in the test with HT-29 [18], the “Cell viability relative to control” value turned out to be 49%.
For `CC(C)S(=O)(=O)c1ccc(-c2cnc3[nH]nc(C(=O)NCc4ccccc4)c3c2)cc1`, the Activity with MCF7 [1] worked out at 60%; in the test with HeLa [2], 60%; in the test with A2780 [3], 90%; in the test on MCF7 [4] it was 90%; in the test with Jurkat [5], 60%; in the test with MOLT-4 [6], 60%. For the same compound, the Activity in the test with A549 [7] was 90%; with MOLT-4 [8], 90%; in the test with PANC-1 [9], 60%; in the test with A549 [10], 60%; in the test on Jurkat [11], 90%; in the test with HT-29 [12] it was 60%. For the same compound, the Activity with SAOS-2 [13] is 90%; in the test with PANC-1 [14], 90%; in the test with A2780 [15], 60%; with SAOS-2 [16], 60%; with HeLa [17], 90%. Besides, the “Cell viability relative to control” value in the test on HT-29 [18] was 90%.
`CS(=O)(=O)c1ccc(-c2cnc3[nH]c(C(=O)N4CCC(c5ccccc5)CC4)cc3c2)cc1`: the Activity in the test on MCF7 [1] was 66%; in the test on HeLa [2], 66%; in the test on A2780 [3], 93%; in the test with MCF7 [4], 93%; in the test on Jurkat [5] it was 66%; with MOLT-4 [6] it was 66%. For the same compound, the Activity with A549 [7] is reported as 93%; in the test on MOLT-4 [8] it was 93%; in the test on PANC-1 [9] it was 66%; with A549 [10], 66%; in the test with Jurkat [11], 93%; in the test with HT-29 [12] it was 66%. Further, the Activity is recorded as 93% in the test with SAOS-2 [13]; 93% in the test with PANC-1 [14]; 66% in the test on A2780 [15]; 66% in the test with SAOS-2 [16]; 93% with HeLa [17]. In addition, the “Cell viability relative to control” value in the test on HT-29 [18] came out at 93%.
With `CS(=O)(=O)c1ccc(-c2cnc3[nH]nc(C(=O)N4CCC(c5ccccc5)CC4)c3c2)cc1`, the Activity was found to be 71% in the test on MCF7 [1]; 71% in the test on HeLa [2]; 92% in the test on A2780 [3]; 92% in the test on MCF7 [4]; 71% in the test on Jurkat [5]; 71% in the test on MOLT-4 [6]. Further, the Activity was 92% in the test with A549 [7]; 92% with MOLT-4 [8]; 71% with PANC-1 [9]; 71% in the test with A549 [10]; 92% in the test with Jurkat [11]; 71% in the test on HT-29 [12]. The Activity with SAOS-2 [13] came out at 92%; with PANC-1 [14] it was 92%; in the test with A2780 [15] it was 71%; in the test on SAOS-2 [16] it was 71%; in the test with HeLa [17], 92%. Also, the “Cell viability relative to control” value in the test on HT-29 [18] turned out to be 92%.
For `CC(C)S(=O)(=O)c1ccc(-c2cnc3[nH]c(C(=O)Nc4ccc(N(C)C)cc4)cc3c2)cc1`, the Activity in the test on MCF7 [1] came out at 68%; in the test with HeLa [2], 68%; in the test with A2780 [3], 108%; with MCF7 [4], 108%; in the test on Jurkat [5] it was 68%; with MOLT-4 [6], 68%. The Activity amounted to 108% in the test on A549 [7]; 108% in the test on MOLT-4 [8]; 68% with PANC-1 [9]; 68% in the test with A549 [10]; 108% with Jurkat [11]; 68% in the test with HT-29 [12]. Further, the Activity with SAOS-2 [13] is given as 108%; in the test on PANC-1 [14], 108%; in the test on A2780 [15] it was 68%; in the test with SAOS-2 [16], 68%; in the test on HeLa [17], 108%. Also, the “Cell viability relative to control” value with HT-29 [18] came to 108%.
